Results published in patent US11969476B2, “Antibody molecule-drug conjugates and uses thereof” (priority 2020, dated 2024).
≈ marks a conversion by molar mass, not a printed value. Ends that are not written are not given here.

Assays:
[1] = test system: P. aeruginosa BAA-2108; set-up: key: R = Resistant; S = Suspectible; I = Intermediate; NT = Note Tested; settings: strain BAA-2108, isolated from human sputum; cited from earlier work
[2] = test system: P. aeruginosa BAA-2109; set-up: key: R = Resistant; S = Suspectible; I = Intermediate; NT = Note Tested; settings: strain BAA-2109, isolated from human sputum; cited from earlier work
[3] = test system: P. aeruginosa BAA-2110; set-up: key: R = Resistant; S = Suspectible; I = Intermediate; NT = Note Tested; settings: strain BAA-2110, isolated from human sputum; cited from earlier work
[4] = test system: P. aeruginosa BAA-2111; set-up: key: R = Resistant; S = Suspectible; I = Intermediate; NT = Note Tested; settings: strain BAA-2111, isolated from human sputum; cited from earlier work
[5] = test system: P. aeruginosa BAA-2112; set-up: key: R = Resistant; S = Suspectible; I = Intermediate; NT = Note Tested; settings: strain BAA-2112, isolated from human sputum; cited from earlier work
[6] = test system: P. aeruginosa BAA-2113; set-up: key: R = Resistant; S = Suspectible; I = Intermediate; NT = Note Tested; settings: strain BAA-2113, isolated from human sputum; cited from earlier work
[7] = test system: P. aeruginosa BAA-2114; set-up: key: R = Resistant; S = Suspectible; I = Intermediate; NT = Note Tested; settings: strain BAA-2114, isolated from human sputum; cited from earlier work
[8] = in vitro; settings: human, Cytotox CC50
[9] = Cytotoxicity to mammalian cells; settings: human, 293T cells
[10] = LC-MS; 10% human serum (FIG. 8)
Description: Assessment of Serum Stability. […] Twenty μl of each test article was placed in a 2.0 ml round bottom microfuge tube. […] Assay tubes were placed at 37° C. in a rotating rack between time-points. […] Supernatant from each tube was collected and frozen at −20° C. for analysis. Samples were harvested and processed at various time-points up to 6 hours.

[11] = test system: 293T; experiment: Cytotoxicity to mammalian cells

Molecule | antibiotic resistance phenotype [1] | antibiotic resistance phenotype [2] | antibiotic resistance phenotype [3] | antibiotic resistance phenotype [4] | antibiotic resistance phenotype [5] | antibiotic resistance phenotype [6] | antibiotic resistance phenotype [7] | CC50 [8] [µg/mL] | CC50 [9] [µg/mL] | CC50 ([9]; Cytotox CC50, concentration at which 50% cytotoxicity of mammalian cells is observed) [µg/mL] | half-life in the presence of serum [10] [min] | cytotoxicity to 293T relative to the MIC [11] [fold]
NCC[C@H](O)C(=O)N[C@@H]1C[C@H](N)[C@@H](O[C@H]2O[C@H](CN)[C@@H](O)[C@H](O)[C@H]2O)[C@H](O)[C@H]1O[C@H]1O[C@H](CO)[C@@H](O)[C@H](N)[C@H]1O [Amikacin] | S | S | S | S | S | S | S | – | – | – | – | –
CC1(C)S[C@@H]2[C@H](NC(=O)[C@H](N)c3ccccc3)C(=O)N2[C@H]1C(=O)O [Ampicillin] | R | R | R | R | R | R | R | – | – | – | – | –
CC(=O)OCC1=C(C(=O)O)N2C(=O)[C@@H](NC(=O)Cc3cccs3)[C@H]2SC1 [Cefalotin] | R | R | – | R | R | R | R | – | – | – | – | –
Cc1nnc(SCC2=C(C(=O)O)N3C(=O)[C@@H](NC(=O)Cn4cnnn4)[C@H]3SC2)s1 [Cefazolin] | – | R | R | R | R | R | R | – | – | – | – | –
CO/N=C(\C(=O)N[C@@H]1C(=O)N2C(C(=O)O)=C(COC(C)=O)CS[C@H]12)c1csc(N)n1 [Cefotaxime] | R | R | R | R | R | R | R | – | – | – | – | –
CO[C@@]1(NC(=O)Cc2cccs2)C(=O)N2C(C(=O)O)=C(COC(N)=O)CS[C@@H]21 [Cefoxitin] | R | R | R | R | R | R | R | – | – | – | – | –
CO/N=C(\C(=O)N[C@@H]1C(=O)N2C(C(=O)O)=C(CSc3nc(=O)c(=O)[nH]n3C)CS[C@H]12)c1csc(N)n1 [Ceftriaxone] | – | R | – | R | R | R | R | – | – | – | – | –
CO/N=C(\C(=O)N[C@@H]1C(=O)N2C(C(=O)OC(C)OC(C)=O)=C(COC(N)=O)CS[C@H]12)c1ccco1 (stereo partly drawn) [Cefuroxime Axetil] | R | R | – | R | R | R | R | – | – | – | – | –
CO/N=C(\C(=O)N[C@@H]1C(=O)N2C(C(=O)O)=C(COC(N)=O)CS[C@H]12)c1ccco1 [Cefuroxime] | R | R | – | R | R | R | R | – | – | – | – | –
O=C(O)c1cn(C2CC2)c2cc(N3CCNCC3)c(F)cc2c1=O [Ciprofloxacin] | S | S | S | S | S | S | R | – | – | – | – | –
CC[C@H](C)[C@H](NC(=O)[C@H](CCCCN)NC(=O)[C@H](CCC(=O)O)NC(=O)[C@H](CCCCN)NC(=O)[C@H](CO)NC(=O)[C@H](CCCCN)NC(=O)[C@H](CCCNC(=N)N)NC(=O)[C@H](Cc1ccccc1)NC(=O)[C@H](Cc1ccccc1)NC(=O)[C@H](CC(=O)O)NC(=O)CNC(=O)[C@H](CC(C)C)NC(=O)[C@H](CC(C)C)NC(=O)CNC(=O)CNC(=O)CN)C(=O)NCC(=O)N[C@@H](CCCCN)C(=O)N[C@@H](CCC(=O)O)C(=O)N[C@@H](Cc1ccccc1)C(=O)N[C@@H](CCCCN)C(=O)N[C@@H](CCCNC(=N)N)C(=O)N[C@H](C(=O)N[C@H](C(=O)N[C@@H](CCC(N)=O)C(=O)N[C@@H](CCCNC(=N)N)C(=O)N[C@H](C(=O)N[C@@H](CCCCN)C(=O)N[C@@H](CC(=O)O)C(=O)N[C@@H](Cc1ccccc1)C(=O)N[C@@H](CC(C)C)C(=O)N[C@@H](CCCNC(=N)N)C(=O)N[C@@H](CC(N)=O)C(=O)N[C@@H](CC(C)C)C(=O)N[C@H](C(=O)N1CCC[C@H]1C(=O)N[C@@H](CCCNC(=N)N)C(=O)N[C@H](C(=O)N[C@@H](CCC(=O)O)C(=O)N[C@@H](CO)C(=O)O)[C@@H](C)O)C(C)C)[C@@H](C)CC)C(C)C)[C@@H](C)CC [Peptide P265] | – | – | – | – | – | – | – | 90 (≈ 19.3 µM) | – | – | – | –
CN(C)c1cc(NC(=O)CNC(C)(C)C)c(O)c2c1C[C@H]1C[C@H]3[C@H](N(C)C)C(O)=C(C(N)=O)C(=O)[C@@]3(O)C(O)=C1C2=O [Tigecycline] | R | R | R | R | R | R | R | – | – | – | – | –
NC[C@H]1O[C@H](O[C@H]2[C@H](O)[C@@H](O[C@H]3O[C@H](CO)[C@@H](O)[C@H](N)[C@H]3O)[C@H](N)C[C@@H]2N)[C@H](N)C[C@@H]1O [Tobramycin] | – | S | S | S | S | S | S | – | – | – | – | –
Amoxicillin/Clavulanic Acid | R | R | – | R | R | R | R | – | – | – | – | –
GGGGIGKFLKKAKKFGKAFVKILKK [Peptide P261] | – | – | – | – | – | – | – | – | 250 | – | – | –
GGGGLRKRLRKFRNKIKEKLKKIGQKIQGLLPKLA [Peptide P271] | – | – | – | – | – | – | – | – | – | 250 | – | –
GGGGRFKRFRKKFKKLFKKLSPVIPLLHLG [Peptide P267] | – | – | – | – | – | – | – | 70 | – | – | – | –
GGGKFFRKLKKSVKKRAKEFFKKPRVIGVSIPF [Peptide P297] | – | – | – | – | – | – | – | – | 780 | – | ~20 | ~200
GGGKRFKKFFKKLKNSVKKRAKKFFKKPRVIGVSIPF [Peptide P296] | – | – | – | – | – | – | – | – | 400 | – | – | –
GGGRGLRRLGRKIAHGVKKYGPTVLRIIKKYG [Peptide P294] | – | – | – | – | – | – | – | 120 | – | – | – | –
Gentamicin | I | S | I | S | S | S | S | – | – | – | – | –
Piperacillin/Tazobactam | – | S | – | S | S | S | S | – | – | – | – | –
Trimethoprim/Sulfamethoxazole | R | R | R | R | R | R | R | – | – | – | – | –
